According to patent publication US20090246276A1, “Pharmaceutical Compositions” (priority 2008, published 2009):
Structures can show the parent of a compound that is named as a salt.

What was measured:
[1] = In-vitro dissolution, 900 ml medium (0.1N HCl, pH 4.5 acetate buffer, pH 6.8 or pH 7.5 phosphate buffer), USP Apparatus 1, 75 rpm, 37° C.; type: physicochemical
Experimental: The dissolution profile of the above pharmaceutical composition was determined under the dissolution conditions described below in Tables 1A, 1B, and 1C.

[2] = Solubility (37° C.) in 0.1N HCl, pH 4.5, pH 6.8; type: physicochemical; parameters: Solubility (37° C.): unit not given here; conditions: hydrobromide

## CC(NC(C)(C)C)C(=O)c1cccc(Cl)c1 (stereo not shown) [Bupropion HBr, bupropion hydrobromide]
[1]; Example 1 tablet, 0.1N HCl, 1 hr
  % Released: 12%
[1]; Example 1 tablet, 0.1N HCl, 2 hr
  % Released: 29%
[1]; Example 1 tablet, 0.1N HCl, 3 hr
  % Released: 45%
[1]; Example 1 tablet, 0.1N HCl, 4 hr
  % Released: 59%
[1]; Example 1 tablet, 0.1N HCl, 5 hr
  % Released: 73%
[1]; Example 1 tablet, 0.1N HCl, 6 hr
  % Released: 84%
[1]; Example 1 tablet, 0.1N HCl, 7 hr
  % Released: 93%
[1]; Example 1 tablet, 0.1N HCl, 8 hr
  % Released: 100%
[1]; Example 1 tablet, 0.1N HCl, 9 hr
  % Released: 103%
[1]; Example 1 tablet, 0.1N HCl, 10 hr
  % Released: 104%
[1]; Example 1 tablet, 0.1N HCl, 11 hr
  % Released: 104%
[1]; Example 1 tablet, 0.1N HCl, 12 hr
  % Released: 104%
[1]; Example 1 tablet, 0.1N HCl, 13 hr
  % Released: 103%
[1]; Example 1 tablet, 0.1N HCl, 14 hr
  % Released: 103%
[1]; Example 1 tablet, pH 4.5 acetate buffer, 1 hr
  % Released: 12%
[1]; Example 1 tablet, pH 4.5 acetate buffer, 2 hr
  % Released: 28%
[1]; Example 1 tablet, pH 4.5 acetate buffer, 3 hr
  % Released: 43%
[1]; Example 1 tablet, pH 4.5 acetate buffer, 4 hr
  % Released: 57%
[1]; Example 1 tablet, pH 4.5 acetate buffer, 5 hr
  % Released: 70%
[1]; Example 1 tablet, pH 4.5 acetate buffer, 6 hr
  % Released: 81%
[1]; Example 1 tablet, pH 4.5 acetate buffer, 7 hr
  % Released: 91%
[1]; Example 1 tablet, pH 4.5 acetate buffer, 8 hr
  % Released: 98%
[1]; Example 1 tablet, pH 4.5 acetate buffer, 9 hr
  % Released: 103%
[1]; Example 1 tablet, pH 4.5 acetate buffer, 10 hr
  % Released: 105%
[1]; Example 1 tablet, pH 4.5 acetate buffer, 11 hr
  % Released: 106%
[1]; Example 1 tablet, pH 4.5 acetate buffer, 12 hr
  % Released: 106%
[1]; Example 1 tablet, pH 4.5 acetate buffer, 13 hr
  % Released: 106%
[1]; Example 1 tablet, pH 4.5 acetate buffer, 14 hr
  % Released: 106%
[1]; Example 1 tablet, pH 4.5 acetate buffer, 15 hr
  % Released: 105%
[1]; Example 1 tablet, pH 4.5 acetate buffer, 16 hr
  % Released: 105%
[1]; Example 1 tablet, pH 6.8 phosphate buffer, 1 hr
  % Released: 12%
[1]; Example 1 tablet, pH 6.8 phosphate buffer, 2 hr
  % Released: 27%
[1]; Example 1 tablet, pH 6.8 phosphate buffer, 3 hr
  % Released: 42%
[1]; Example 1 tablet, pH 6.8 phosphate buffer, 4 hr
  % Released: 56%
[1]; Example 1 tablet, pH 6.8 phosphate buffer, 5 hr
  % Released: 69%
[1]; Example 1 tablet, pH 6.8 phosphate buffer, 6 hr
  % Released: 80%
[1]; Example 1 tablet, pH 6.8 phosphate buffer, 7 hr
  % Released: 88%
[1]; Example 1 tablet, pH 6.8 phosphate buffer, 8 hr
  % Released: 95%
[1]; Example 1 tablet, pH 6.8 phosphate buffer, 9 hr
  % Released: 98%
[1]; Example 1 tablet, pH 6.8 phosphate buffer, 10 hr
  % Released: 100%
[1]; Example 1 tablet, pH 6.8 phosphate buffer, 11 hr
  % Released: 100%
[1]; Example 1 tablet, pH 6.8 phosphate buffer, 12 hr
  % Released: 100%
[1]; Example 1 tablet, pH 6.8 phosphate buffer, 13 hr
  % Released: 101%
[1]; Example 1 tablet, pH 6.8 phosphate buffer, 14 hr
  % Released: 100%
[1]; Example 1 tablet, pH 6.8 phosphate buffer, 15 hr
  % Released: 99%
[1]; Example 1 tablet, pH 6.8 phosphate buffer, 16 hr
  % Released: 99%
[1]; Example 2 tablet, 0.1N HCl, 1 hr
  % Released: 12%
[1]; Example 2 tablet, 0.1N HCl, 2 hr
  % Released: 29%
[1]; Example 2 tablet, 0.1N HCl, 4 hr
  % Released: 61%
[1]; Example 2 tablet, 0.1N HCl, 8 hr
  % Released: 100%
[1]; Example 2 tablet, 0.1N HCl, 12 hr
  % Released: 103%
[1]; Example 2 tablet, pH 4.5 acetate buffer, 1 hr
  % Released: 12%
[1]; Example 2 tablet, pH 4.5 acetate buffer, 2 hr
  % Released: 28%
[1]; Example 2 tablet, pH 4.5 acetate buffer, 4 hr
  % Released: 57%
[1]; Example 2 tablet, pH 4.5 acetate buffer, 8 hr
  % Released: 97%
[1]; Example 2 tablet, pH 4.5 acetate buffer, 16 hr
  % Released: 101%
[1]; Example 2 tablet, pH 6.8 phosphate buffer, 1 hr
  % Released: 11%
[1]; Example 2 tablet, pH 6.8 phosphate buffer, 2 hr
  % Released: 27%
[1]; Example 2 tablet, pH 6.8 phosphate buffer, 4 hr
  % Released: 55%
[1]; Example 2 tablet, pH 6.8 phosphate buffer, 8 hr
  % Released: 94%
[1]; Example 2 tablet, pH 6.8 phosphate buffer, 12 hr
  % Released: 97%
[1]; Example 2 tablet, pH 6.8 phosphate buffer, 16 hr
  % Released: 96%
[1]; Example 3 tablet, 0.1N HCl, 1 hr
  % Released: 13%
[1]; Example 3 tablet, 0.1N HCl, 2 hr
  % Released: 31%
[1]; Example 3 tablet, 0.1N HCl, 4 hr
  % Released: 62%
[1]; Example 3 tablet, 0.1N HCl, 12 hr
  % Released: 104%
[1]; Example 3 tablet, 0.1N HCl, 16 hr
  % Released: 103%
[1]; Example 3 tablet, pH 4.5 acetate buffer, 1 hr
  % Released: 12%
[1]; Example 3 tablet, pH 4.5 acetate buffer, 2 hr
  % Released: 28%
[1]; Example 3 tablet, pH 4.5 acetate buffer, 4 hr
  % Released: 58%
[1]; Example 3 tablet, pH 4.5 acetate buffer, 8 hr
  % Released: 99%
[1]; Example 3 tablet, pH 4.5 acetate buffer, 12 hr
  % Released: 103%
[1]; Example 3 tablet, pH 6.8 phosphate buffer, 1 hr
  % Released: 11%
[1]; Example 3 tablet, pH 6.8 phosphate buffer, 2 hr
  % Released: 27%
[1]; Example 3 tablet, pH 6.8 phosphate buffer, 4 hr
  % Released: 57%
[1]; Example 3 tablet, pH 6.8 phosphate buffer, 8 hr
  % Released: 98%
[1]; Example 3 tablet, pH 6.8 phosphate buffer, 12 hr
  % Released: 100%
[1]; Example 3 tablet, pH 6.8 phosphate buffer, 16 hr
  % Released: 99%
[1]; Example 4 tablet, 0.1N HCl, 1 hr
  % Released: 11%
[1]; Example 4 tablet, 0.1N HCl, 2 hr
  % Released: 27%
[1]; Example 4 tablet, 0.1N HCl, 4 hr
  % Released: 56%
[1]; Example 4 tablet, 0.1N HCl, 8 hr
  % Released: 97%
[1]; Example 4 tablet, 0.1N HCl, 12 hr
  % Released: 105%
[1]; Example 4 tablet, 0.1N HCl, 16 hr
  % Released: 103%
[1]; Example 5 tablet, 0.1N HCl, 1 hr
  % Released: 9%
[1]; Example 5 tablet, 0.1N HCl, 2 hr
  % Released: 20%
[1]; Example 5 tablet, 0.1N HCl, 4 hr
  % Released: 43%
[1]; Example 5 tablet, 0.1N HCl, 8 hr
  % Released: 82%
[1]; Example 5 tablet, 0.1N HCl, 12 hr
  % Released: 98%
[1]; Example 5 tablet, 0.1N HCl, 16 hr
  % Released: 99%
[1]; Example 6 tablet, 0.1N HCl, 1 hr
  % Released: 13%
[1]; Example 6 tablet, 0.1N HCl, 2 hr
  % Released: 30%
[1]; Example 6 tablet, 0.1N HCl, 4 hr
  % Released: 61%
[1]; Example 6 tablet, 0.1N HCl, 8 hr
  % Released: 98%
[1]; Example 6 tablet, 0.1N HCl, 12 hr
  % Released: 100%
[1]; Example 6 tablet, 0.1N HCl, 16 hr
  % Released: 100%
[1]; Example 7 tablet, 0.1N HCl, 1 hr
  % Released: 2%
[1]; Example 7 tablet, 0.1N HCl, 8 hr
  % Released: 36%
[1]; Example 7 tablet, 0.1N HCl, 12 hr
  % Released: 57%
[1]; Example 7 tablet, 0.1N HCl, 16 hr
  % Released: 74%
[2]; 0.1N HCl
  Solubility (37° C.): 190
[2]; pH 4.5
  Solubility (37° C.): 180
[2]; pH 6.8
  Solubility (37° C.): 200
